In patent US20240246902A1, “PRODRUGS OF 6-DIAZO-5-OXO-L-NORLEUCINE” (THE JOHNS HOPKINS UNIVERSITY, priority 2021, published 2024):

Columns and labels:
[1] = Metabolic stability in swine liver tissue homogenate; type: in vitro ADME; conditions: prodrug 20 μM, 37° C.
Method: (§1) The representative Compounds of the Disclosure were screened for metabolic stability in swine jejunum/liver tissue homogenates, following our previously reported methods (Zimmermann et al., J. Med. Chem., 61(9):3918-29 (2018); Tenora et al., J. Med. Chem., 62(7):3524-38 (2019)). In brief, freshly collected tissues were homogenized by probe sonication in 9× volume of 0.1 M potassium phosphate buffer over ice. Post homogenization, prodrugs were spiked at a concentration of 20 μM (in triplicate) and incubated in an orbital shaker at 37° C. for 60 min. Final concentration of DMSO in the incubations was 0.2% v/v. At each time point (0, 30, 60 min), 100 μL of sample was precipitated with 300 μL of methanol containing internal standard (IS; losartan: 0.5 μM). […] After centrifugation, 50 μL of supernatant was diluted with 50 μL of water, vortexed and submitted for analysis. Prodrug disappearance over time was measured using liquid chromatography tandem mass spectrometry (LC-MS/MS).
(§2) The processed supernatants were analyzed on a Thermo Scientific Vanquish UPLC system (equipped with Vanquish autosampler, pumps, and column compartment) hyphenated to TSQ Altis mass spectrometer (Thermo Fisher Scientific Inc., Waltham MA). […] The autosampler was operated at 4° C. […] Peak area ratios obtained from peak area counts of analyte and internal standard were used to measure the disappearance of prodrugs.

[2] = Metabolic stability in swine jejunum (gut) tissue homogenate; type: in vitro ADME; conditions: prodrug 20 μM, 37° C.
Method: as §1, §2

Structure (SMILES) | Liver stability (% remaining at 60 min) [1] [%] | Efflux (Efflux) | Gut Stability (% remaining at 60 min) [2] [%]
CC(C)OC(=O)[C@H](CCC(=O)C=[N+]=[N-])NC(=O)C(Cl)Cl [Compound 5e, Isopropyl (S)-6-diazo-2-(2,2-dichloroacetamido)-5-oxohexanoate] | 0 ± 0 | – | –
CCOC(=O)[C@H](CCC(=O)C=[N+]=[N-])NC(C)=O [Compound 5k, Ethyl (S)-2-acetamido-6-diazo-5-oxohexanoate] | 83 ± 2 | 1 | –
C=CCOC(=O)[C@H](CCC(=O)C=[N+]=[N-])NC(C)=O [Compound 5l, Allyl (S)-2-acetamido-6-diazo-5-oxohexanoate] | 12 ± 0 | – | –
CCCC(=O)N[C@@H](Cc1c[nH]c2ccccc12)C(=O)N[C@@H](CCC(=O)C=[N+]=[N-])C(=O)OC(C)C [Compound 8a, Isopropyl (S)-2-((S)-2-butyramido-3-(1H-indol-3-yl)propanamido)-6-diazo-5-oxohexanoate] | 5 ± 1 | – | 12 ± 1
CC(C)CC(=O)N[C@@H](Cc1c[nH]c2ccccc12)C(=O)N[C@@H](CCC(=O)C=[N+]=[N-])C(=O)OC(C)C [Compound 8b, Isopropyl (S)-2-((S)-3-(1H-indol-3-yl)-2-(3-methylbutanamido)propanamido)-6-diazo-5-oxohexanoate] | 1 ± 0 | – | 6 ± 1
CC(C)OC(=O)[C@H](CCC(=O)C=[N+]=[N-])NC(=O)[C@H](Cc1c[nH]c2ccccc12)NC(=O)C(C)C [Compound 8c, Isopropyl (S)-2-((S)-3-(1H-indol-3-yl)-2-isobutyramidopropanamido)-6-diazo-5-oxohexanoate] | 13 ± 0 | – | 13 ± 7
CC(C)OC(=O)[C@H](CCC(=O)C=[N+]=[N-])NC(=O)[C@H](Cc1c[nH]c2ccccc12)NC(=O)C(C)(C)C [Compound 8d, Isopropyl (S)-2-((S)-3-(1H-indol-3-yl)-2-pivalamidopropanamido)-6-diazo-5-oxohexanoate] | 2 ± 0 | – | 9 ± 1
CC(C)OC(=O)[C@H](CCC(=O)C=[N+]=[N-])NC(=O)[C@H](Cc1c[nH]c2ccccc12)NC(=O)C1CC1 [Compound 8e, Isopropyl (S)-2-((S)-2-(cyclopropanecarboxamido)-3-(1H-indol-3-yl)propanamido)-6-diazo-5-oxohexanoate] | 7 ± 0 | – | 9 ± 0
CC(C)OC(=O)[C@H](CCC(=O)C=[N+]=[N-])NC(=O)[C@H](Cc1c[nH]c2ccccc12)NC(=O)CN(C)C [Compound 8f, Isopropyl (S)-6-diazo-2-((S)-2-(2-(dimethylamino)acetamido)-3-(1H-indol-3-yl)propanamido)-5-oxohexanoate] | 2 ± 0 | – | 2 ± 0
CCN(CC)CC(=O)N[C@@H](Cc1c[nH]c2ccccc12)C(=O)N[C@@H](CCC(=O)C=[N+]=[N-])C(=O)OC(C)C [Compound 8g, Isopropyl (S)-6-diazo-2-((S)-2-(2-(diethylamino)acetamido)-3-(1H-indol-3-yl)propanamido)-5-oxohexanoate] | 1 ± 0 | – | 1 ± 0
CC(C)OC(=O)[C@H](CCC(=O)C=[N+]=[N-])NC(=O)[C@H](Cc1c[nH]c2ccccc12)NC(=O)CN1CCOCC1 [Compound 8i, Isopropyl (S)-2-((S)-3-(1H-indol-3-yl)-2-(2-morpholinoacetamido)propanamido)-6-diazo-5-oxohexanoate] | 0 ± 0 | – | 0 ± 0
CC(C)OC(=O)[C@H](CCC(=O)C=[N+]=[N-])NC(=O)[C@H](Cc1c[nH]c2ccccc12)NC(=O)CN1CCN(C)CC1 [Compound 8j, Isopropyl (S)-2-((S)-3-(1H-indol-3-yl)-2-(2-(4-methylpiperazin-1-yl)acetamido)propanamido)-6-diazo-5-oxohexanoate] | 2 ± 0 | – | –
CC(C)OC(=O)[C@H](CCC(=O)C=[N+]=[N-])NC(=O)[C@H](Cc1c[nH]c2ccccc12)NC(=O)c1cccnc1 [Compound 8l, Isopropyl (S)-2-((S)-3-(1H-indol-3-yl)-2-(nicotinamido)propanamido)-6-diazo-5-oxohexanoate] | 0 ± 0 | – | 2 ± 0
CC(C)OC(=O)[C@H](CCC(=O)C=[N+]=[N-])NC(=O)[C@H](Cc1c[nH]c2ccccc12)NC(=O)c1ccncc1 [Compound 8m, Isopropyl (S)-2-((S)-3-(1H-indol-3-yl)-2-(isonicotinamido)propanamido)-6-diazo-5-oxohexanoate] | 0 ± 0 | – | –
Cn1cc(C[C@H](NC(=O)C(Cl)Cl)C(=O)N[C@@H](CCC(=O)C=[N+]=[N-])C(=O)OC(C)(C)C)c2ccccc21 [Compound 12h, tert-Butyl (S)-6-diazo-2-((S)-2-(2,2-dichloroacetamido)-3-(1-methyl-1H-indol-3-yl)propanamido)-5-oxohexanoate] | 50 ± 3 | – | –
CC(=O)NCC(=O)N[C@@H](CCC(=O)C=[N+]=[N-])C(=O)OC(C)(C)C [Compound 14a, tert-Butyl (S)-2-(2-acetamidoacetamido)-6-diazo-5-oxohexanoate] | 88 ± 1 | – | 96 ± 0
CC(=O)N[C@@H](Cc1cccnc1)C(=O)N[C@@H](CCC(=O)C=[N+]=[N-])C(=O)OC(C)(C)C [Compound 17a, tert-Butyl (S)-2-((S)-2-acetamido-3-(pyridin-3-yl)propanamido)-6-diazo-5-oxohexanoate] | 103 ± 3 | – | 96 ± 1
CC(=O)N[C@@H](Cc1cncn1C)C(=O)N[C@@H](CCC(=O)C=[N+]=[N-])C(=O)OC(C)(C)C [Compound 18a, tert-Butyl (S)-2-((S)-2-acetamido-3-(1-methyl-1H-imidazol-5-yl)propanamido)-6-diazo-5-oxohexanoate] | 105 ± 2 | – | 93 ± 1
CN(C)CC(=O)N[C@@H](Cc1cncn1C)C(=O)N[C@@H](CCC(=O)C=[N+]=[N-])C(=O)OC(C)(C)C [Compound 18b, tert-Butyl (S)-6-diazo-2-((S)-2-(2-(dimethylamino)acetamido)-3-(1-methyl-1H-imidazol-5-yl)propanamido)-5-oxohexanoate] | 100 ± 3 | – | 98 ± 2
CN(C)CC(=O)N[C@@H](Cc1cccc(F)c1)C(=O)N[C@@H](CCC(=O)C=[N+]=[N-])C(=O)OC(C)(C)C [Compound 21a, tert-Butyl (S)-6-diazo-2-((S)-2-(2-(dimethylamino)acetamido)-3-(3-fluorophenyl)propanamido)-5-oxohexanoate] | 75 ± 4 | 46.71 | –
CN(C)CC(=O)N[C@@H](Cc1ccc(F)cc1)C(=O)N[C@@H](CCC(=O)C=[N+]=[N-])C(=O)OC(C)(C)C [Compound 22a, tert-Butyl (S)-6-diazo-2-((S)-2-(2-(dimethylamino)acetamido)-3-(4-fluorophenyl)propanamido)-5-oxohexanoate] | 62 ± 1 | 52.07 | –
CN(C)CC(=O)N[C@@H](CC(C)(C)C)C(=O)N[C@@H](CCC(=O)C=[N+]=[N-])C(=O)OC(C)(C)C [Compound 24a, tert-Butyl (S)-6-diazo-2-((S)-2-(2-(dimethylamino)acetamido)-4,4-dimethylpentanamido)-5-oxohexanoate] | 78 ± 1 | – | –
CN(C)[C@@H](Cc1ccccc1)C(=O)N[C@@H](CCC(=O)C=[N+]=[N-])C(=O)OC(C)(C)C [Compound 26a, tert-Butyl (S)-6-diazo-2-((S)-2-(dimethylamino)-3-phenylpropanamido)-5-oxohexanoate] | 71 ± 0 | – | –
CN(C)CC(=O)NCC(=O)N[C@@H](CCC(=O)C=[N+]=[N-])C(N)=O [Compound 31c, (S)-6-Diazo-2-(2-(2-(dimethylamino)acetamido)acetamido)-5-oxohexanamide] | 89 ± 4 | – | –
CC(C)C[C@H](NC(=O)CN(C)C)C(=O)N[C@@H](CCC(=O)C=[N+]=[N-])C(N)=O [Compound 31d, (S)-6-Diazo-2-((S)-2-(2-(dimethylamino)acetamido)-4-methylpentanamido)-5-oxohexanamide] | 90 ± 1 | – | –
CN(C)CC(=O)N[C@@H](Cc1ccccc1)C(=O)N[C@@H](CCC(=O)C=[N+]=[N-])C(N)=O [Compound 31e, (S)-6-Diazo-2-((S)-2-(2-(dimethylamino)acetamido)-3-phenylpropanamido)-5-oxohexanamide] | 39 ± 0 | – | –
CN(C)CC(=O)N[C@@H](Cc1cn(C)c2ccccc12)C(=O)N[C@@H](CCC(=O)C=[N+]=[N-])C(N)=O [Compound 31f, (S)-6-Diazo-2-((S)-2-(2-(dimethylamino)acetamido)-3-(1-methyl-1H-indol-3-yl)propanamido)-5-oxohexanamide] | 49 ± 0 | – | 89 ± 2
